Source: ChEMBL document CHEMBL1132252, “Nonapeptide analogues containing (R)-3-hydroxybutanoate and beta-homoalanine oligomers: synthesis and binding affinity to a class I major histocompatibility complex protein” (1999)
Non-standard residues stand in square brackets, D forms with d. Residues, ends and D or L forms follow the SMILES beside them. *: point of attachment. X1 = C[C@H](CC(=O)N[C@@H](CCCCN)C(=O)O)OC(=O)C[C@H](C)NC(=O)C[C@@H](C)O*; β3hA = C[C@H](N)CC(=O)O

Tested on: RMA-S
Experiment: The compound was tested for binding affinity against murine RMA-S cells transfected with B*2705 by FMC analysis.
Type: functional, Mus musculus

| Compound | C50 [µM] |
| --- | --- |
| C[C@H](CC(=O)N[C@@H](C)CC(=O)N[C@@H](C)CC(=O)N[C@@H](CCCCN)C(=O)O)OC(=O)C[C@@H](C)OC(=O)[C@H](C)NC(=O)[C@H](CCCN=C(N)N)NC(=O)CN | 17 |
| C[C@H](CC(=O)N[C@@H](C)CC(=O)N[C@@H](C)CC(=O)N[C@@H](CCCCN)C(=O)O)NC(=O)C[C@@H](C)NC(=O)[C@H](C)NC(=O)[C@H](CCCN=C(N)N)NC(=O)CN | 30 |
| C[C@H](CC(=O)N[C@H](C)CC(=O)N[C@@H](CCCCN)C(=O)O)NC(=O)C[C@@H](C)NC(=O)C[C@@H](C)NC(=O)[C@H](C)NC(=O)[C@H](CCCN=C(N)N)NC(=O)CN.O=C(O)C(F)(F)F.O=C(O)C(F)(F)F.O=C(O)C(F)(F)F | 2.8 |
| C[C@H](CC(=O)N[C@@H](CCCCN)C(=O)O)NC(=O)C[C@H](C)NC(=O)C[C@@H](C)NC(=O)C[C@H](C)NC(=O)[C@H](C)NC(=O)[C@H](CCCN=C(N)N)NC(=O)CN.O=C(O)C(F)(F)F.O=C(O)C(F)(F)F.O=C(O)C(F)(F)F | 4.8 |
| H-GRAFVTIGK-OH | 2.8 |
| C[C@H](NC(=O)[C@H](CCCN=C(N)N)NC(=O)CN)C(=O)N[C@@H](C)CC(=O)N[C@@H](C)CC(=O)N[C@@H](C)CC(=O)N[C@@H](C)CC(=O)N[C@@H](CCCCN)C(=O)O | 6 |
| C[C@H](CC(=O)N[C@@H](CCCCN)C(=O)O)OC(=O)C[C@H](C)NC(=O)C[C@@H](C)OC(=O)C[C@H](C)NC(=O)[C@H](C)NC(=O)[C@H](CCCN=C(N)N)NC(=O)CN (H-GRA[β3hA]-X1) | 2.8 |
